Columns and labels:
[1] = target: T1, RARβ (Homo sapiens, UniProt P10826); assay: ligand binding assay, RARβ; conditions: results expressed in Ki numbers, read-out: RAR Binding β
T1 sequence (P10826 1-455): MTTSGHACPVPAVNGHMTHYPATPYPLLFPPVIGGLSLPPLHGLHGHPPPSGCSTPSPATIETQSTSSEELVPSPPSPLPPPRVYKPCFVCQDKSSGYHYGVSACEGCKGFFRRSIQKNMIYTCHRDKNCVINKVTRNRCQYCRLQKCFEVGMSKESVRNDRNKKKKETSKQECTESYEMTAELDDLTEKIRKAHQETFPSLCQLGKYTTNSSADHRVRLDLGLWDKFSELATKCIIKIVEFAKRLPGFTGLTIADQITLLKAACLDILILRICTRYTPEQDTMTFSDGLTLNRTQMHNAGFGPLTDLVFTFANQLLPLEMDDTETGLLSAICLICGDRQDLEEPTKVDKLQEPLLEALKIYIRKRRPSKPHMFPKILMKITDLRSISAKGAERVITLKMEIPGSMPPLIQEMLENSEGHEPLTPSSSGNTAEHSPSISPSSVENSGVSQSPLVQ
Excerpt: (§1) A holoreceptor transactivation assay and a ligand binding assay which measure the antagonist/agonist like activity of the compounds of the invention, or their ability to bind to the several retinoid receptor subtypes, respectively, are described in published PCT Application No. WO WO93/11755 (particularly on pages 30-33 and 37-41) published on Jun. 24, 1993, the specification of which is also incorporated herein by reference. A detailed experimental procedure for holoreceptor transactivations has been described by Heyman et al. Cell 68, 397-406, (1992); Allegretto et al. J. Biol. Chem. 268, 26625-26633, and Mangelsdorf et al. The Retinoids: Biology, Chemistry and Medicine, pp 319-349, Raven Press Ltd., New York, which are expressly incorporated herein by reference. The results obtained in this assay are expressed in EC50 numbers, as they are also in the chimeric receptor transactivation assay. The results of the ligand binding assay are expressed in Ki numbers. (See Cheng et al. Biochemical Pharmacology Vol. 22 pp 3099-3108, expressly incorporated herein by reference.)
(§2) Table 1 discloses the activity of certain exemplary compounds of the invention in the above-described chimeric RAR receptor transactivation and binding assays.

[2] = target: T2, RARγ (Homo sapiens, UniProt P13631); assay: ligand binding assay, RARγ; conditions: results expressed in Ki numbers, read-out: RAR Binding γ
T2 sequence (P13631 1-454): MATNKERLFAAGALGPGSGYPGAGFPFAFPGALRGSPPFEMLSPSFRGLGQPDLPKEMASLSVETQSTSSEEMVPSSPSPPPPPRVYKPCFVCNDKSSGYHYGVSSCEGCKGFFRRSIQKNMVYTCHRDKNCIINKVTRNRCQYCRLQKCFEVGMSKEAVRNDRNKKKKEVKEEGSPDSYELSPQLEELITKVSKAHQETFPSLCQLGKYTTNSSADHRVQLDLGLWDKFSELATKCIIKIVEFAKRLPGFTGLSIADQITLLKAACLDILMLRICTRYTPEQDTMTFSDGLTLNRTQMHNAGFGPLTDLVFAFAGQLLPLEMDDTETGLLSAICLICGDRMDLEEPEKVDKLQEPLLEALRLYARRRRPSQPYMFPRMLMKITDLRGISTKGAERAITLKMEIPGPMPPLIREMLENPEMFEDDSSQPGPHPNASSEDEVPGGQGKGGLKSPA
Excerpt: as §1, §2

[3] = target: T3, RARα (Homo sapiens, UniProt P10276); assay: chimeric receptor transactivation assay, RARα; type: cell-based; conditions: for EC50: chimeric receptor transactivation, read-out: RAR EC50 α; for % Efficiency α: percentage of maximum compared to standard TTNPB
T3 sequence (P10276 183-417 limits assumed): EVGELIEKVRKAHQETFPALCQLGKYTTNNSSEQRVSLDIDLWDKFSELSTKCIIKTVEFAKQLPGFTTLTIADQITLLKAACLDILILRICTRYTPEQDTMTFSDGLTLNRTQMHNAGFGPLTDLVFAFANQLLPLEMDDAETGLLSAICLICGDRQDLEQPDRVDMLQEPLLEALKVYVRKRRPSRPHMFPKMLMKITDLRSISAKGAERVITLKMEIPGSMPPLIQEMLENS
Protocol: (§3) The compounds of the invention were tested in certain assays for activity as agonists of RAR and RXR retinoid receptors. Specifically, one such assay is a chimeric receptor transactivation assay which tests for agonist-like activity in the RARα, RARβ and RARγ receptor subtypes, and which is based on work published by Feigner P. L. and Holm M. (1989) Focus, 112 is described in detail in U.S. Pat. No. 5,455,265. The specification of U.S. Pat. No. 5,455,265 is hereby expressly incorporated by reference.
as §1
(§4) Efficacy in a transactivation assay is expressed as a percentage of the maximum potency attained by the compound compared to a standard which, in this case, is the compound 4-[(1E)-2-(5,6,7,8-tetrahydro-5,5,8,8-tetramethyl-2-naphthalenyl)-1-propenyl]-benzoic acid. (TTNPB) This standard compound is described in PCT Publication WO 2002077169 A2.
as §2

[4] = target: T4, RARγ (Homo sapiens, UniProt P13631); assay: chimeric receptor transactivation assay, RARγ; type: cell-based; conditions: for EC50: chimeric receptor transactivation, read-out: RAR EC50 γ; for % Efficiency γ: percentage of maximum compared to standard TTNPB
T4 construct: % Efficiency γ; other: percentage of maximum compared to standard TTNPB
T4 sequence (P13631 185-454 limits assumed): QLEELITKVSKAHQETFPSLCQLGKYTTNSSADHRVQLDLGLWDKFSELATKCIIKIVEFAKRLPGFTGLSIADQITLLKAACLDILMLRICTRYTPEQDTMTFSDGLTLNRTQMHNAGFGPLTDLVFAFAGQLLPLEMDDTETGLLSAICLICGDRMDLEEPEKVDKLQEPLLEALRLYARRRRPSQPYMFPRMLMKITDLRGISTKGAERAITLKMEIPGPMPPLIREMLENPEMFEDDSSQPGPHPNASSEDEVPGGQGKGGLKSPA
Protocol: as §3, §1, §4, §2

[5] = target: T5, RARβ (Homo sapiens, UniProt P10826); assay: chimeric receptor transactivation assay, RARβ; type: cell-based; conditions: for EC50: chimeric receptor transactivation, read-out: RAR EC50 β; for % Efficiency β: percentage of maximum compared to standard TTNPB
T5 sequence (P10826 183-455 limits assumed): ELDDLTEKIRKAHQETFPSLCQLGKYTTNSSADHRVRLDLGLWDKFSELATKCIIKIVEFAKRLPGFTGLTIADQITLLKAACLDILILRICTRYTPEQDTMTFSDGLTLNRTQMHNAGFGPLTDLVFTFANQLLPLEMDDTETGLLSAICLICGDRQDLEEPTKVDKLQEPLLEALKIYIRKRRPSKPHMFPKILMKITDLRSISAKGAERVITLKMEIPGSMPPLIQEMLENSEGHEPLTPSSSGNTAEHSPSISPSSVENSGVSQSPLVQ
Protocol: as §3, §1, §4, §2

[6] = target: T6, RARα (Homo sapiens, UniProt P10276); assay: ligand binding assay, RARα; conditions: results expressed in Ki numbers, read-out: RAR Binding α
T6 sequence (P10276 1-462): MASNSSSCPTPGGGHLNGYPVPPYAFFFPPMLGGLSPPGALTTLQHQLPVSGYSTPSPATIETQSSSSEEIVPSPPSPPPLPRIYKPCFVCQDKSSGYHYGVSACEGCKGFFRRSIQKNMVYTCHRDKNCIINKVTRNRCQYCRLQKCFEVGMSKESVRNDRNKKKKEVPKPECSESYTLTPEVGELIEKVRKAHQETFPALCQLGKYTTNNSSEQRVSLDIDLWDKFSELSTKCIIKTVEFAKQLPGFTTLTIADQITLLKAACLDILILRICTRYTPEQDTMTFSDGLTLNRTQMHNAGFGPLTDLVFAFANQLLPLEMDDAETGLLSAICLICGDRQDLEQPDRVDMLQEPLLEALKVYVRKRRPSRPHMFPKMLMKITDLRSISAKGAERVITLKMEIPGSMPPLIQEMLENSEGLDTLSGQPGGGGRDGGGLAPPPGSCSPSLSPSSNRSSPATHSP
Excerpt: as §1, §2

CC1(C)CCC(C)(C)c2cc(C(C=Cc3ccc(C(=O)O)cc3)=NO)ccc21 [drawing 8]
Ki [1]: 1300 nM
Ki [2]: 3 nM
EC50 [3]: 441 nM
% Efficiency α [3]: 81%
EC50 [4]: 0.09 nM
% Efficiency γ [4]: 103%
EC50 [5]: 31 nM
% Efficiency β [5]: 102%
Ki [6]: 2500 nM

CC1(C)CCC(C)(C)c2cc(C(C=Cc3ccc(C(=O)O)cc3)=NO)ccc21 [drawing 9]
Ki [1]: 2000 nM
Ki [2]: 14 nM
EC50 [3]: 150 nM
% Efficiency α [3]: 81%
EC50 [4]: 0.37 nM
% Efficiency γ [4]: 114%
EC50 [5]: 34 nM
% Efficiency β [5]: 112%
Ki [6]: 2400 nM

CC1(C)CCC(C)(C)c2cc(C(C=Cc3ccc(C(=O)O)cc3F)=NO)ccc21 [drawing 10]
Ki [1]: 5000 nM
Ki [2]: 4 nM
EC50 [3]: > 1000 nM
EC50 [4]: 0.11 nM
% Efficiency γ [4]: 84%
EC50 [5]: 53 nM
% Efficiency β [5]: 84%
Ki [6]: 8000 nM

CC1(C)CCC(C)(C)c2cc(C(C=Cc3ccc(C(=O)O)cc3F)=NO)ccc21 [drawing 11]
Ki [1]: 8000 nM
Ki [2]: 34 nM
EC50 [3]: > 1000 nM
EC50 [4]: 0.85 nM
% Efficiency γ [4]: 76%
EC50 [5]: 118 nM
% Efficiency β [5]: 85%
Ki [6]: 8000 nM

CC1(C)CCCc2ccc(C(C=Cc3ccc(C(=O)O)cc3)=NO)cc21 [drawing 12]
Ki [1]: 1200 nM
Ki [2]: 5 nM
EC50 [3]: 2120 nM
% Efficiency α [3]: 51%
EC50 [4]: 0.09 nM
% Efficiency γ [4]: 97%
EC50 [5]: 65 nM
% Efficiency β [5]: 106%
Ki [6]: 6000 nM

CC1(C)CCCc2ccc(C(C=Cc3ccc(C(=O)O)cc3)=NO)cc21 [drawing 14]
Ki [1]: 4700 nM
Ki [2]: 16 nM
EC50 [3]: > 1000 nM
EC50 [4]: 3 nM
% Efficiency γ [4]: 98%
EC50 [5]: 432 nM
% Efficiency β [5]: 88%
Ki [6]: 22000 nM

CC1(C)CCCc2cc(C(C=Cc3ccc(C(=O)O)cc3)=NO)ccc21 [drawing 16]
Ki [1]: > 10000 nM
Ki [2]: 6000 nM
EC50 [3]: > 10000 nM
EC50 [4]: > 10000 nM
EC50 [5]: > 10000 nM
Ki [6]: 2000 nM
